Source: patent US10189838B2, “Aza-oxo-indoles for the treatment and prophylaxis of respiratory syncytial virus infection” (Hoffmann-La Roche Inc., priority 2013, dated 2019)

Test system: RSV Long strain
Assay: Viral cytopathic effect (CPE) assay, RSV Long strain
Assay type: cell-based, Respiratory Syncytial Virus
Conditions: human respiratory syncytial virus, 144 h, cell viability after 6 days (Cell Counting kit-8)
Description: EC50: the concentration of a compound where 50% of its maximal protection effect against viral induced CPE is observed
LongStrain: an A subtype RSV strain obtained from ATCC with catalog number VR-26
To measure anti-RSV activity of compounds, 96-well plates are seeded with 6×10^3 cells per well in Dulbecco's modified Eagle's medium (DMEM) containing 10% fetal bovine serum (FBS). Cells are infected the next day with sufficient RSV Long strain (ATCC) to produce an approximately 80-90% cytopathic effect after 6 days, in the presence of serial half-log diluted compound in a total volume of […] per well. The viability of cells is assessed after 6 days using Cell Counting kit-8 (Dojindo Molecular Technologies). The absorbance at 450 nm and referenced at 630 nm is measured to determine 50% effective concentration (EC50)

| Compound | EC50 |
| --- | --- |
| CS(=O)(=O)CCn1c(CN2C(=O)C3(CC3)c3ccncc32)cc2ccccc21 [Example 1-1, 1′-({1-[2-(Methylsulfonyl)ethyl]-1H-indol-2-yl}methyl)spiro[cyclopropane-1,3′-pyrrolo[2,3-c]pyridin]-2′(1′H)-one] | 220 nM |
| COc1ccc2c(c1)cc(CN1C(=O)C3(CC3)c3ccncc31)n2CCS(C)(=O)=O [Example 1-2, 1′-({5-Methoxy-1-[2-(methylsulfonyl)ethyl]-1H-indol-2-yl}methyl)spiro[cyclopropane-1,3′-pyrrolo[2,3-c]pyridin]-2′(1′H)-one] | 74 nM |
| CS(=O)(=O)CCn1c(CN2C(=O)C3(CC3)c3ccncc32)cc2cc(C#N)ccc21 [Example 1-3, 1-[2-(Methylsulfonyl)ethyl]-2-[(2′-oxospiro[cyclopropane-1,3′-pyrrolo[2,3-c]pyridin]-1′(2′H)-yl)methyl]-1H-indole-5-carbonitrile] | 938 nM |
| CS(=O)(=O)CCn1c(CN2C(=O)C3(CC3)c3ccncc32)cc2cc(F)ccc21 [Example 1-4, 1′-({5-Fluoro-1-[2-(methylsulfonyl)ethyl]-1H-indol-2-yl}methyl)spiro[cyclopropane-1,3′-pyrrolo[2,3-c]pyridin]-2′(1′H)-one] | 189 nM |
| CS(=O)(=O)CCn1c(CN2C(=O)C3(CC3)c3ccncc32)cc2cc(Br)ccc21 [Example 1-5, 1′-({5-Bromo-1-[2-(methylsulfonyl)ethyl]-1H-indol-2-yl}methyl)spiro[cyclopropane-1,3′-pyrrolo[2,3-c]pyridin]-2′(1′H)-one] | 14 nM |
| CS(=O)(=O)CCn1c(CN2C(=O)C3(CC3)c3ccncc32)cc2c(Cl)cccc21 [Example 1-6, 1′-({4-Chloro-1-[2-(methylsulfonyl)ethyl]-1H-indol-2-yl}methyl)spiro[cyclopropane-1,3′-pyrrolo[2,3-c]pyridin]-2′(1′H)-one] | 1670 nM |
| CS(=O)(=O)CCn1c(CN2C(=O)C3(CC3)c3ccncc32)cc2cccc(Cl)c21 [Example 1-7, 1′-({7-Chloro-1-[2-(methylsulfonyl)ethyl]-1H-indol-2-yl}methyl)spiro[cyclopropane-1,3′-pyrrolo[2,3-c]pyridin]-2′(1′H)-one] | 164 nM |
| CCc1ccc2c(c1)cc(CN1C(=O)C3(CC3)c3ccncc31)n2CCS(C)(=O)=O [Example 1-8, 1′-({5-Ethyl-1-[2-(methylsulfonyl)ethyl]-1H-indol-2-yl}methyl)spiro[cyclopropane-1,3′-pyrrolo[2,3-c]pyridin]-2′(1′H)-one] | 220 nM |
| CS(=O)(=O)CCn1c(CN2C(=O)C3(CC3)c3ccncc32)cc2cc(F)cc(F)c21 [Example 1-9, 1′-({5,7-Difluoro-1-[2-(methylsulfonyl)ethyl]-1H-indol-2-yl}methyl)spiro[cyclopropane-1,3′-pyrrolo[2,3-c]pyridin]-2′(1′H)-one] | 24 nM |
| CS(=O)(=O)CCn1c(CN2C(=O)C3(CC3)c3ccncc32)cc2cc(C(F)(F)F)ccc21 [Example 1-10, 1′-({1-[2-(Methylsulfonyl)ethyl]-5-(trifluoromethyl)-1H-indol-2-yl}methyl)spiro[cyclopropane-1,3′-pyrrolo[2,3-c]pyridin]-2′(1′H)-one] | 557 nM |
| CS(=O)(=O)CCn1c(CN2C(=O)C3(CC3)c3ccncc32)cc2cc(F)c(F)cc21 [Example 1-11, 1′-({5,6-Difluoro-1-[2-(methylsulfonyl)ethyl]-1H-indol-2-yl}methyl)spiro[cyclopropane-1,3′-pyrrolo[2,3-c]pyridin]-2′(1′H)-one] | 935 nM |
| CS(=O)(=O)CCn1c(CN2C(=O)C3(CC3)c3ccncc32)cc2cc(Cl)cc(F)c21 [Example 1-12, 1′-({5-Chloro-7-fluoro-1-[2-(methylsulfonyl)ethyl]-1H-indol-2-yl}methyl)spiro[cyclopropane-1,3′-pyrrolo[2,3-c]pyridin]-2′(1′H)-one] | 3.4 nM |
| Cc1ccc2c(c1)cc(CN1C(=O)C3(CC3)c3ccncc31)n2CCS(C)(=O)=O [Example 1-13, 1′-({5-Methyl-1-[2-(methylsulfonyl)ethyl]-1H-indol-2-yl}methyl)spiro[cyclopropane-1,3′-pyrrolo[2,3-c]pyridin]-2′(1′H)-one] | 9 nM |
| CS(=O)(=O)CCn1c(CN2C(=O)C3(CC3)c3ccncc32)cc2cnccc21 [Example 1-14, 1′-({1-[2-(Methylsulfonyl)ethyl]-1H-pyrrolo[3,2-c]pyridin-2-yl}methyl)spiro[cyclopropane-1,3′-pyrrolo[2,3-c]pyridin]-2′(1′H)-one] | 77.8 nM |
| CCS(=O)(=O)CCn1c(CN2C(=O)C3(CC3)c3ccncc32)cc2cc(Cl)ccc21 [Example 2-1, 1′-({5-Chloro-1-[2-(ethylsulfonyl)ethyl]-1H-indol-2-yl}methyl)spiro[cyclopropane-1,3′-pyrrolo[2,3-c]pyridin]-2′(1′H)-one] | 7.67 nM |
| CCS(=O)(=O)CCn1c(CN2C(=O)C3(CC3)c3ccncc32)cc2cc(Cl)cnc21 [Example 2-2, 1′-({5-Chloro-1-[2-(ethylsulfonyl)ethyl]-1H-pyrrolo[2,3-b]pyridin-2-yl}methyl)spiro[cyclopropane-1,3′-pyrrolo[2,3-c]pyridin]-2′(1′H)-one] | 19 nM |
| CCS(=O)(=O)CCn1c(CN2C(=O)C3(CC3)c3cccnc32)cc2cc(Cl)ccc21 [Example 2-3, 1′-({5-Chloro-1-[2-(ethylsulfonyl)ethyl]-1H-indol-2-yl}methyl)spiro[cyclopropane-1,3′-pyrrolo[2,3-b]pyridin]-2′(1′H)-one] | 247 nM |
| CS(=O)(=O)CCn1c(CN2C(=O)C3(CCC3)c3ccncc32)cc2cc(Cl)cnc21 [Example 2-4, 1′-({5-Chloro-1-[2-(methylsulfonyl)ethyl]-1H-pyrrolo[2,3-b]pyridin-2-yl}methyl)spiro[cyclobutane-1,3′-pyrrolo[2,3-c]pyridin]-2′(1′H)-one] | 28.8 nM |
| CS(=O)(=O)CCn1c(CN2C(=O)C3(CC3)c3cccnc32)cc2cc(Cl)ccc21 [Example 2-5, 1′-({5-Chloro-1-[2-(methylsulfonyl)ethyl]-1H-indol-2-yl}methyl)spiro[cyclopropane-1,3′-pyrrolo[2,3-b]pyridin]-2′(1′H)-one] | 169 nM |
| CS(=O)(=O)CCn1c(CN2C(=O)C3(CC3)c3cc(F)ccc32)cc2cc(Cl)cnc21 [Example 2-7, 1′-({5-Chloro-1-[2-(methylsulfonyl)ethyl]-1H-pyrrolo[2,3-b]pyridin-2-yl}methyl)-5′-fluorospiro[cyclopropane-1,3′-indol]-2′(1′H)-one] | 750 nM |
| CS(=O)(=O)CCn1c(CN2C(=O)C3(CCCC3)c3ccncc32)cc2cc(Cl)cnc21 [Example 2-8, 1′-({5-Chloro-1-[2-(methylsulfonyl)ethyl]-1H-pyrrolo[2,3-b]pyridin-2-yl}methyl)spiro[cyclopentane-1,3′-pyrrolo[2,3-c]pyridin]-2′(1′H)-one] | 919 nM |
| CS(=O)(=O)CCn1c(CN2C(=O)C3(CC3)c3ccncc32)cc2nc(Cl)ccc21 [Example 2-9, 1′-({5-Chloro-1-[2-(methylsulfonyl)ethyl]-1H-pyrrolo[3,2-b]pyridin-2-yl}methyl)spiro[cyclopropane-1,3′-pyrrolo[2,3-c]pyridin]-2′(1′H)-one] | 63 nM |
| CS(=O)(=O)CCn1c(CN2C(=O)C3(CC3)c3cnccc32)cc2cc(Cl)ccc21 [Example 3-1, 1′-({5-Chloro-1-[2-(methylsulfonyl)ethyl]-1H-indol-2-yl}methyl)spiro[cyclopropane-1,3′-pyrrolo[3,2-c]pyridin]-2′(1′H)-one] | 201 nM |
| CS(=O)(=O)CCn1c(CN2C(=O)C3(CCCC3)c3ccncc32)cc2cc(Cl)ccc21 [Example 3-2, 1′-({5-Chloro-1-[2-(methylsulfonyl)ethyl]-1H-indol-2-yl}methyl)spiro[cyclopentane-1,3′-pyrrolo[2,3-c]pyridin]-2′(1′H)-one] | 290 nM |
| CS(=O)(=O)CCn1c(CN2C(=O)C3(CC3)c3ccncc32)cc2cc(Cl)ccc21 [Example 3-3, 1′-({5-Chloro-1-[2-(methylsulfonyl)ethyl]-1H-indol-2-yl}methyl)spiro[cyclopropane-1,3′-pyrrolo[2,3-c]pyridin]-2′(1′H)-one] | 18 nM |
| CS(=O)(=O)CCCCn1c(CN2C(=O)C3(CC3)c3ccncc32)cc2cc(Cl)ccc21 [Example 4-1, 1′-({5-Chloro-1-[4-(methylsulfonyl)butyl]-1H-indol-2-yl}methyl)spiro[cyclopropane-1,3′-pyrrolo[2,3-c]pyridin]-2′(1′H)-one] | 5.9 nM |
| CS(=O)(=O)c1ccc(Cn2c(CN3C(=O)C4(CC4)c4ccncc43)cc3cc(Cl)ccc32)cc1 [Example 4-2, 1′-({5-Chloro-1-[4-(methylsulfonyl)benzyl]-1H-indol-2-yl}methyl)spiro[cyclopropane-1,3′-pyrrolo[2,3-c]pyridin]-2′(1′H)-one] | 275 nM |
| CS(=O)(=O)CCCn1c(CN2C(=O)C3(CC3)c3ccncc32)cc2cc(Cl)cnc21 [Example 4-3, 1′-({5-Chloro-1-[3-(methylsulfonyl)propyl]-1H-pyrrolo[2,3-b]pyridin-2-yl}methyl)spiro[cyclopropane-1,3′-pyrrolo[2,3-c]pyridin]-2′(1′H)-one] | 37.9 nM |
| Cc1cnc2c(c1)cc(CN1C(=O)C3(CC3)c3ccncc31)n2CCS(C)(=O)=O [Example 4-4, 1′-({5-Methyl-1-[2-(methylsulfonyl)ethyl]-1H-pyrrolo[2,3-b]pyridin-2-yl}methyl)spiro[cyclopropane-1,3′-pyrrolo[2,3-c]pyridin]-2′(1′H)-one] | 64 nM |
| CS(=O)(=O)CCCCn1c(CN2C(=O)C3(CC3)c3ccncc32)cc2nc(Cl)ccc21 [Example 4-5, 1′-({5-Chloro-1-[4-(methylsulfonyl)butyl]-1H-pyrrolo[3,2-b]pyridin-2-yl}methyl)spiro[cyclopropane-1,3′-pyrrolo[2,3-c]pyridin]-2′(1′H)-one] | 22.1 nM |
